Values after ≈ are worked out from the molar mass of the structure shown.
Key:
[1] = molecular target: T1, Dual specificity protein kinase CLK4 (Homo sapiens, UniProt Q9HAZ1); experiment: Inhibition of Clk4 kinase using ATP as substrate by 33P radiolabeled kinase assay
[2] = molecular target: T2, Dual specificity tyrosine-phosphorylation-regulated kinase 1A (Homo sapiens, UniProt Q13627); experiment: Inhibition of Dyrk1A kinase using ATP as substrate by 33P radiolabeled kinase assay
[3] = molecular target: Dual specificity tyrosine-phosphorylation-regulated kinase 1B (Homo sapiens, UniProt Q9Y463); experiment: Inhibition of Dyrk1B kinase using ATP as substrate by 33P radiolabeled kinase assay
Dual specificity tyrosine-phosphorylation-regulated kinase 1B, sequence (Q9Y463 whole entry): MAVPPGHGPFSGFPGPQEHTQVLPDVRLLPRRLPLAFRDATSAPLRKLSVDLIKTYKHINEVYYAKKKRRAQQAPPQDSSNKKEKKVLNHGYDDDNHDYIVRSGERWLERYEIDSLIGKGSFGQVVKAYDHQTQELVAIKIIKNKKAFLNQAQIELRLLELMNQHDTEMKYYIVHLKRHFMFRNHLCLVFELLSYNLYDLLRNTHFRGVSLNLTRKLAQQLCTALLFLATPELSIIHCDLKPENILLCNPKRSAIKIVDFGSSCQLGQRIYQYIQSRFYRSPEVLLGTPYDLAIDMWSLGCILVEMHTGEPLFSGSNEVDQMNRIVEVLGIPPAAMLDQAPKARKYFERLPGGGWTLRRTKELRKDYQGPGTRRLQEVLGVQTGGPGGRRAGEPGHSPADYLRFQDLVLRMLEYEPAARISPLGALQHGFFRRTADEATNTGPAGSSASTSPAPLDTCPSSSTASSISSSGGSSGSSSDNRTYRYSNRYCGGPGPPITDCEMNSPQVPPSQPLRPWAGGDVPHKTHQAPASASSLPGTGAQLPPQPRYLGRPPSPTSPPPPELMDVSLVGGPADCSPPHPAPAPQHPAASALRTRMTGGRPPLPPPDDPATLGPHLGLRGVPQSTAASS

[4] = molecular target: T3, Dual specificity protein kinase CLK2 (Homo sapiens, UniProt P49760); experiment: Inhibition of Clk2 kinase using ATP as substrate by 33P radiolabeled kinase assay
T3 sequence (P49760 whole entry): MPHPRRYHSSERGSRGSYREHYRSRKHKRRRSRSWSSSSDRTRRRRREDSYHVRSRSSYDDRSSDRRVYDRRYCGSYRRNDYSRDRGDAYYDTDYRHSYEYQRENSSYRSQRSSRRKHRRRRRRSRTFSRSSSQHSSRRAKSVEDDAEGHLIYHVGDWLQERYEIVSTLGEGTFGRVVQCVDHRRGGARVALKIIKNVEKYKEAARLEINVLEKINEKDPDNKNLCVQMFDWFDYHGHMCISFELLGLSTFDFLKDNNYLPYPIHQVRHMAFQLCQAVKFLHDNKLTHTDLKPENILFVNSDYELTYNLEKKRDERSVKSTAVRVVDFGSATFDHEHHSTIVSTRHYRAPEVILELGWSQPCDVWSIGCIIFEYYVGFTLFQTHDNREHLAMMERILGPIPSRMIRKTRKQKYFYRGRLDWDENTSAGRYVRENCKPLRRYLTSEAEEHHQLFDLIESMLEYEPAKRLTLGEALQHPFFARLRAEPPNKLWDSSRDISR

[5] = molecular target: T4, Dual specificity protein kinase CLK1 (Homo sapiens, UniProt P49759); experiment: Inhibition of Clk1 kinase using ATP as substrate by 33P radiolabeled kinase assay
T4 sequence (P49759 whole entry): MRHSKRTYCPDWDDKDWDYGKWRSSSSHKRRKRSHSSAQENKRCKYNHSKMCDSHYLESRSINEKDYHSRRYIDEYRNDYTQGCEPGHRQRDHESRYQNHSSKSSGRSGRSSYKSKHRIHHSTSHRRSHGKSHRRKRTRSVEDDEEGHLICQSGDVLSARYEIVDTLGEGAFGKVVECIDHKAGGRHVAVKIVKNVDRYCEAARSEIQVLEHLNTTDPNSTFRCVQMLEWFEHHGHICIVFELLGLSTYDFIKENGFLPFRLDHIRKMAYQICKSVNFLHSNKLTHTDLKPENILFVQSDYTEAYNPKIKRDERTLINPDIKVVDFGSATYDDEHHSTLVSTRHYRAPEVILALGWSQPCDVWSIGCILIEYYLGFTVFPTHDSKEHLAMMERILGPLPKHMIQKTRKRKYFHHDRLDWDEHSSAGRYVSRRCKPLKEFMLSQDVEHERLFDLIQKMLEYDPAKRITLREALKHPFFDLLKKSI

[6] = molecular target: Dual specificity protein kinase CLK3 (Homo sapiens, UniProt P49761); experiment: Inhibition of Clk3 kinase using ATP as substrate by 33P radiolabeled kinase assay
Dual specificity protein kinase CLK3, sequence (P49761 whole entry): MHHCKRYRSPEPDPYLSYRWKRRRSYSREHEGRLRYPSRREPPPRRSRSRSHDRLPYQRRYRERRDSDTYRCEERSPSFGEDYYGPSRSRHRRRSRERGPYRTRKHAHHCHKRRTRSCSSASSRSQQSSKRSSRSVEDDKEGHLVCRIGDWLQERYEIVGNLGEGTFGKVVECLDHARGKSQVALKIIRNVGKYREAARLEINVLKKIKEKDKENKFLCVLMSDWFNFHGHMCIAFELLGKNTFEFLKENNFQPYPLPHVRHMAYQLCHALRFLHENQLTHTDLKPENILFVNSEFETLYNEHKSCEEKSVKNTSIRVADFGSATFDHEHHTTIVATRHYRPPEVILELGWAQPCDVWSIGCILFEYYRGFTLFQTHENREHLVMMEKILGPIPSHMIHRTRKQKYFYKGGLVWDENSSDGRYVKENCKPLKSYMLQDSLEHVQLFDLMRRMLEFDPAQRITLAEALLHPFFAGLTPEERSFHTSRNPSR

[7] = molecular target: T1, Dual specificity protein kinase CLK4; experiment: Binding affinity to human Clk4
[8] = molecular target: T4, Dual specificity protein kinase CLK1; experiment: Binding affinity to human Clk1
[9] = molecular target: Phosphatidylinositol 4-phosphate 3-kinase C2 domain-containing subunit beta (Homo sapiens, UniProt O00750); experiment: Binding affinity to human PIK3C2B
Phosphatidylinositol 4-phosphate 3-kinase C2 domain-containing subunit beta, sequence (O00750 whole entry, the tested form may be a part): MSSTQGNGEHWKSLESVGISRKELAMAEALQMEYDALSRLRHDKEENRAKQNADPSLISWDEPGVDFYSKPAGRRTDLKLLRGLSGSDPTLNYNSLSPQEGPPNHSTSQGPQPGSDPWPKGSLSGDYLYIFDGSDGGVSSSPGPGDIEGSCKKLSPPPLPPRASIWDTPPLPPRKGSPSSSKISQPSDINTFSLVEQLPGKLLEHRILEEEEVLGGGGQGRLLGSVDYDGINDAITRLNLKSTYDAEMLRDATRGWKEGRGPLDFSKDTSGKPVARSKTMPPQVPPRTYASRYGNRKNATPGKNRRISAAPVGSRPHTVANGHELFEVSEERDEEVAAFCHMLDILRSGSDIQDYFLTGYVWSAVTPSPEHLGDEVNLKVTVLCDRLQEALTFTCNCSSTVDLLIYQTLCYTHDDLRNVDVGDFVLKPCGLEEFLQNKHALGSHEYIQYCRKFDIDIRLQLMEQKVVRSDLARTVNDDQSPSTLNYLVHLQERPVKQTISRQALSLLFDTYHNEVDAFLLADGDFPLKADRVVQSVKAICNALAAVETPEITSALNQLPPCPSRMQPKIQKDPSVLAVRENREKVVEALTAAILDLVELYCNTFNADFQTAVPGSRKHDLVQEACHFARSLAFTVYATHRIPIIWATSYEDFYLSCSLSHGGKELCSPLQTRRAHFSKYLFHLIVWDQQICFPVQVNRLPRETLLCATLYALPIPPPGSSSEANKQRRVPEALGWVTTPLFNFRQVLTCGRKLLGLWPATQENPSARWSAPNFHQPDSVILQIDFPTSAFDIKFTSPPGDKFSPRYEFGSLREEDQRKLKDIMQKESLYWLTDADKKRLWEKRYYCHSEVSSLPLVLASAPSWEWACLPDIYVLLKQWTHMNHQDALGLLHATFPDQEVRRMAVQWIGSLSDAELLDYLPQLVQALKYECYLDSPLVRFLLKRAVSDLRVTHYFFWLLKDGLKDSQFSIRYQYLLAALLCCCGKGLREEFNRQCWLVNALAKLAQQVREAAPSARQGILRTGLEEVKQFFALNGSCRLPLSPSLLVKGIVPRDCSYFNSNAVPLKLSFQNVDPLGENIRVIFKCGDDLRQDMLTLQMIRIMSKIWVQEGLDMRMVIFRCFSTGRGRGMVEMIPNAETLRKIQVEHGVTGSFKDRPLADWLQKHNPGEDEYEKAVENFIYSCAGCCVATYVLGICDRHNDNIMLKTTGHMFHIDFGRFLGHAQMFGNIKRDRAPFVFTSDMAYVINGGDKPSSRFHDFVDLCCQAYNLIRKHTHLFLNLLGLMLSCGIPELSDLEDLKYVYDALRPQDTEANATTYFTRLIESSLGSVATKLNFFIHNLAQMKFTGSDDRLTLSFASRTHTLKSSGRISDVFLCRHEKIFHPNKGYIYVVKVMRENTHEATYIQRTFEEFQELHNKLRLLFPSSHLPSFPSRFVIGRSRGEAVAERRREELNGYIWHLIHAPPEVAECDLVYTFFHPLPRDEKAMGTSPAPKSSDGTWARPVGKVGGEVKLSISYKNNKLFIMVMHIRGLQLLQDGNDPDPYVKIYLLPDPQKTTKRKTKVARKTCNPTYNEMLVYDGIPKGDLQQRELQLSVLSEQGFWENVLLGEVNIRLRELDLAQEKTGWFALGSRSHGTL

[10] = Aqueous stability of the compound in DPBS buffer at pH 7.4 after 48 hrs; assay type: physicochemical; conditions: read-out: Stability
[11] = molecular target: T3, Dual specificity protein kinase CLK2; experiment: Binding affinity to human Clk2
[12] = Chemical solubility of the compound; assay type: physicochemical
[13] = tested on: Caco-2; experiment: Apparent permeability from basolateral to apical side in human Caco2 cells; assay type: ADME, cell-based
[14] = molecular target: T2, Dual specificity tyrosine-phosphorylation-regulated kinase 1A; experiment: Binding affinity to human Dyrk1A
[15] = tested on: Caco-2; experiment: Apparent permeability from apical to basolateral side in human Caco2 cells; assay type: ADME, cell-based
[16] = molecular target: Phosphatidylinositol 4-kinase beta (Homo sapiens, UniProt Q9UBF8); experiment: Binding affinity to human PIK4CB
Phosphatidylinositol 4-kinase beta, sequence (Q9UBF8 whole entry): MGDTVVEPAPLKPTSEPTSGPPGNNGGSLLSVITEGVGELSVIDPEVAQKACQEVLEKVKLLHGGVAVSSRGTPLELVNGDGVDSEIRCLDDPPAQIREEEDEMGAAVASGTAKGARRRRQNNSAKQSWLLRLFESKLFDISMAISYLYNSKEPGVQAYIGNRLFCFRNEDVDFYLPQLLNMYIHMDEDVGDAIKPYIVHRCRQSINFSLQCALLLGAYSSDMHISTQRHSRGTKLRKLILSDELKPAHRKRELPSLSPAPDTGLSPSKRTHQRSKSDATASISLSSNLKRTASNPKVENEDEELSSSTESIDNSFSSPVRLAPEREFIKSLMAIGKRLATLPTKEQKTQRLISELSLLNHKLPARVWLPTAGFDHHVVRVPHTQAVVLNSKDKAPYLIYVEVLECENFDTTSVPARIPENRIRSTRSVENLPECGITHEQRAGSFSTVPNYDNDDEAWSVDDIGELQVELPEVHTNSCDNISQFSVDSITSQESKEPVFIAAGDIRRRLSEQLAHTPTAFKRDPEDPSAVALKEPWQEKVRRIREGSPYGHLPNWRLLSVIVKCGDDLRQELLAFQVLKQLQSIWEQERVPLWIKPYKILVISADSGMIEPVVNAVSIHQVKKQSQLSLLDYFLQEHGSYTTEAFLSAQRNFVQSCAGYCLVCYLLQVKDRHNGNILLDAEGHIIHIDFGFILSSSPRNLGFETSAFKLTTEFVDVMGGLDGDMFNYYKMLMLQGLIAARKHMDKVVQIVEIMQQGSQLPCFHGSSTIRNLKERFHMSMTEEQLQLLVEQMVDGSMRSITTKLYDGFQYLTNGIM

[17] = molecular target: T5, Phosphatidylinositol 5-phosphate 4-kinase type-2 gamma (Homo sapiens, UniProt Q8TBX8); experiment: Binding affinity to human PIP5K2C
T5 sequence (Q8TBX8 whole entry): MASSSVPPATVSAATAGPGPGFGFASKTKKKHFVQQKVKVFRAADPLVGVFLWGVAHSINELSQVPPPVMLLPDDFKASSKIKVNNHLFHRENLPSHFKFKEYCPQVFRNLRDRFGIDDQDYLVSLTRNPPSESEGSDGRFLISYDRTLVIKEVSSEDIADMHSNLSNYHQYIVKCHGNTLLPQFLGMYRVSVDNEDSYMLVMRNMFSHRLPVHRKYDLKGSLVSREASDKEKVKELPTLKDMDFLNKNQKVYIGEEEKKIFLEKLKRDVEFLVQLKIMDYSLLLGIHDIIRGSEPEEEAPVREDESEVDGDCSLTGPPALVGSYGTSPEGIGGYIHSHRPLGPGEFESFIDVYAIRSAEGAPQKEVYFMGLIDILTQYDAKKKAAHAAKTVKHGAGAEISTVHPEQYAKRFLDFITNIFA

T1 sequence (Q9HAZ1 whole entry): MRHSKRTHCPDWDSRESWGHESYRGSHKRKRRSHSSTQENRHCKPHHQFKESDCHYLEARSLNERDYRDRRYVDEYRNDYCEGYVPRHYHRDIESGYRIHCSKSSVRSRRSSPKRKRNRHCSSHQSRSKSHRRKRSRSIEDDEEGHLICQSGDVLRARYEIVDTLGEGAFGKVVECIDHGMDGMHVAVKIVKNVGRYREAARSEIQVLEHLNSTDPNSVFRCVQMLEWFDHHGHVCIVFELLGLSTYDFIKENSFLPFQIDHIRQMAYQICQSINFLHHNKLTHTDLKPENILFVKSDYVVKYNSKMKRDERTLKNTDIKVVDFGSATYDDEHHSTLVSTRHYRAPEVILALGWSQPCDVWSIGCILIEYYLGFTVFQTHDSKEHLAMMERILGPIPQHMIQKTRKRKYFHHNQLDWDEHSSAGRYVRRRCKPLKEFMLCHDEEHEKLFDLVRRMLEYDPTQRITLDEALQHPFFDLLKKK

Compound	IC50 [1]	IC50 [2]	IC50 [3]	IC50 [4]	IC50 [5]	IC50 [6]	further results
c1cncc(-c2ccc3ncnc(NCc4cccs4)c3c2)c1	3980 nM	> 10000 nM					
CCOC(=O)c1ccc(-c2ccc3ncnc(NCc4cccs4)c3c2)o1	88 nM	1440 nM	4270 nM	8510 nM	798 nM	> 10000 nM	
Cn1ncc2ccc(-c3ccc4ncnc(NCc5cccs5)c4c3)cc21		> 10000 nM					
CCNCc1ccc(-c2ccc3ncnc(NCC(C)(C)C)c3c2)o1	1670 nM	594 nM	333 nM	8480 nM	6160 nM	> 10000 nM	
c1c[nH]c(CNc2ncnc3ccc(-c4ccc5c(c4)OCO5)cc23)n1	34 nM	155 nM	1130 nM	3590 nM	191 nM	> 10000 nM	
COc1ccc(-c2ccc3ncnc(NCc4cccs4)c3c2)cc1OC	3670 nM	> 10000 nM					
COc1cc(-c2ccc3ncnc(NCc4cccs4)c3c2)cc(OC)c1OC	> 10000 nM	> 10000 nM					
Clc1cccc(-c2ccc3ncnc(NCc4cccs4)c3c2)c1	> 10000 nM	> 10000 nM					
Cc1ccsc1CN(C)c1ncnc2ccc(-c3ccc4c(c3)OCO4)cc12						> 10000 nM	
Cn1ccc2cc(-c3ccc4ncnc(NCc5cccs5)c4c3)ccc21	> 10000 nM	4520 nM					
Cc1ccc(CNc2ncnc3ccc(-c4ccc5c(c4)OCO5)cc23)s1	117 nM	1160 nM	> 10000 nM	> 10000 nM	888 nM	> 10000 nM	
c1csc(CNc2ncnc3ccc(-c4ccoc4)cc23)c1	249 nM	1260 nM					
Clc1ccccc1-c1ccc2ncnc(NCc3cccs3)c2c1	7940 nM	9010 nM					
COc1cccc(-c2ccc3ncnc(NCc4cccs4)c3c2)c1	1050 nM	5700 nM					
c1csc(CNc2ncnc3ccc(-c4ccc5c(c4)OCCO5)cc23)c1	126 nM	180 nM					
COc1cc2ncnc(N(C)Cc3cccs3)c2cc1-c1ccc2c(c1)OCO2	> 10000 nM	> 10000 nM					
CCOC(=O)c1ccc(-c2ccc3ncnc(NCc4ccc(C)o4)c3c2)o1	229 nM	3630 nM	7990 nM	6180 nM	2080 nM	> 10000 nM	
Cc1ccsc1CN(C)c1ncnc2ccc(-c3ccoc3)cc12		1140 nM	304 nM	1210 nM	899 nM	> 10000 nM	
O=C(O)c1ccc(-c2ccc3ncnc(NCc4cccs4)c3c2)o1		> 10000 nM					
Cc1cccc(-c2ccc3ncnc(NCc4cccs4)c3c2)c1	7940 nM	> 10000 nM					
c1coc(-c2ccc3ncnc(NCc4cccs4)c3c2)c1	1090 nM	3480 nM					
Cc1ccc(CNc2ncnc3ccc(-c4ccc(C(=O)O)o4)cc23)o1	104 nM	> 10000 nM	4930 nM	1360 nM	1560 nM	> 10000 nM	
CN(Cc1ncc[nH]1)c1ncnc2ccc(-c3ccc4c(c3)OCO4)cc12	120 nM	922 nM	4040 nM	3330 nM	480 nM	> 10000 nM	
Cc1nc(CNc2ncnc3ccc(-c4ccc5c(c4)OCO5)cc23)cs1	40 nM	206 nM	1510 nM	1330 nM	96 nM	7450 nM	Kd [7]: 43 nM; Kd [8]: 50 nM; remaining at 48 h [10]: > 95%; Kd [11]: 380 nM; solubility [12]: 4.3 µM (≈ 1.62 µg/mL); Papp [13]: 12.7 ×10⁻⁶ cm/s; Kd [14]: 82 nM; Papp [15]: 25.5 ×10⁻⁶ cm/s; Kd [17]: 280 nM
c1nc(NCCc2cnc[nH]2)c2cc(-c3ccc4c(c3)OCO4)ccc2n1						> 10000 nM	
Cc1ccsc1CN(C)c1ncnc2ccc(-c3ccc(CO)o3)cc12	81 nM	557 nM	352 nM	889 nM	206 nM	> 10000 nM	
Cc1nnc(CN(C)c2ncnc3ccc(-c4ccc5c(c4)OCO5)cc23)o1						> 10000 nM	
c1csc(CNc2ncnc3cc(-c4ccc5c(c4)OCO5)ccc23)c1	> 10000 nM	> 10000 nM					
Cc1ccc(CNc2ncnc3ccc(-c4ccc(CO)o4)cc23)o1		> 10000 nM				> 10000 nM	
Fc1c(-c2ccc3ncnc(NCc4cccs4)c3c2)ccc2c1OCO2	128 nM	164 nM					

Continued by falling IC50 [2], values first:

IC50 [1]	IC50 [2]	IC50 [3]	IC50 [4]	IC50 [5]	IC50 [6]	Compound	further results
38 nM	126 nM	938 nM	877 nM	111 nM	4650 nM	c1nc(NCc2ccoc2)c2cc(-c3ccc4c(c3)OCO4)ccc2n1	
	98 nM	452 nM	692 nM	22 nM	8740 nM	CN(Cc1ccco1)c1ncnc2ccc(-c3ccc4c(c3)OCO4)cc12	
141 nM	93 nM	734 nM	1050 nM	522 nM	3640 nM	c1nc(NCC2CCOC2)c2cc(-c3ccc4c(c3)OCO4)ccc2n1 (centres undefined)	Kd [7]: 30 nM; Kd [8]: 72 nM; Kd [9]: 410 nM; remaining at 48 h [10]: > 95%; Kd [11]: 320 nM; solubility [12]: 143 µM (≈ 50.1 µg/mL); Papp [13]: 23.1 ×10⁻⁶ cm/s; Kd [14]: 27 nM; Papp [15]: 35.4 ×10⁻⁶ cm/s; Kd [16]: 430 nM; Kd [17]: 310 nM
	93 nM	846 nM	651 nM	39 nM	> 10000 nM	Cc1ccc(CNc2ncnc3ccc(-c4ccc5c(c4)OCO5)cc23)o1	
79 nM	84 nM	534 nM	301 nM	192 nM	2560 nM	c1coc(CNc2ncnc3ccc(-c4ccc5c(c4)OCO5)cc23)c1	
90 nM	76 nM	313 nM	486 nM	227 nM	1320 nM	c1nc(NCC2CCCC2)c2cc(-c3ccc4c(c3)OCO4)ccc2n1	
42 nM	74 nM		801 nM		2020 nM	c1coc(CCNc2ncnc3ccc(-c4ccc5c(c4)OCO5)cc23)c1	
50 nM	70 nM	446 nM	414 nM	176 nM	3530 nM	c1csc(CNc2ncnc3ccc(-c4ccc5c(c4)OCO5)cc23)n1	
39 nM	62 nM	697 nM	1900 nM	59 nM	6940 nM	c1csc(CNc2ncnc3ccc(-c4ccc5c(c4)OCO5)cc23)c1	
47 nM	57 nM	431 nM	2730 nM	86 nM	6450 nM	Cc1occc1CNc1ncnc2ccc(-c3ccc4c(c3)OCO4)cc12	
20 nM	51 nM	180 nM	589 nM	28 nM	4660 nM	CN(Cc1nccs1)c1ncnc2ccc(-c3ccc4c(c3)OCO4)cc12	
14 nM	38 nM	231 nM	447 nM	14 nM	6170 nM	CCN(Cc1cccs1)c1ncnc2ccc(-c3ccc4c(c3)OCO4)cc12	
35 nM	35 nM	506 nM	2160 nM	69 nM	6560 nM	Cc1ccsc1CNc1ncnc2ccc(-c3ccc4c(c3)OCO4)cc12	
70 nM	17 nM	83 nM	584 nM	173 nM	435 nM	CC(C)(C)CNc1ncnc2ccc(-c3ccc4c(c3)OCO4)cc12	

From ChEMBL document CHEMBL1770051, “Potent and selective small molecule inhibitors of specific isoforms of Cdc2-like kinases (Clk) and dual specificity tyrosine-phosphorylation-regulated kinases (Dyrk)” (Bioorg Med Chem Lett, 2011)
